In patent US11845760B2, “PRMT5 inhibitors” (AMGEN INC., priority 2020, dated 2023) one finds IC50 data, which are given here for 15 compounds.

Where two headings read alike, the source gives them in different places.

One assay has as its system HCT116 MTAP null cells. As to the kind of experiment: HCT116 MTAP null cell line proliferation (CellTiter-Glo cell viability, 6 days). The format is cell-based. Particulars: HCT116 MTAP null cells, 6 days of treatment, CellTiter-Glo cell viability, read-out: HCT-116 MTAP null IC50. In short, it runs like this:
(§1)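 Isogenic HCT116 pair (parent and MTAP double-allele knockout) in RPMI 1640 + 10% FBS, exposed 6 days to compound: 8–9-point 1:3 dilutions from 1 or 10 μM top, or 22-point 1:2 dilutions from 10 or 50 μM top. CellTiter-Glo luminescence; IC50 from sigmoidal fit (Hill −1) or 4-parameter logistic.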

The test system of a further assay is HCT116 WT cells. As to the kind of experiment: HCT116 WT cell line proliferation (CellTiter-Glo cell viability, 6 days). The class given is cell-based. The following applies: HCT116 WT (parent) cells, 6 days of treatment, CellTiter-Glo cell viability, read-out: HCT-116 WT IC50. In short, it runs like this:
as §1
A general note: In ATP-based viability assays light output follows the ATP content of the culture.

As a reminder, the IC50 is the concentration at which inhibition is half-maximal. On to `Nc1nc2ccc(C(=O)N3CCOC[C@H]3c3ccc(Cl)cc3)cc2c2c1COC2` (single isomer, unassigned) [Example 580], for which the IC50 in the assay with HCT116 MTAP null cells (HCT116-MTAP null, 144 h) was more than 1 µM; in the assay on HCT116 WT cells (Homo sapiens, HCT-116, 144 h) it was more than 10 µM.
On the same counts, the results for `Nc1nc2ccc(C(=O)N3CCOC[C@@H]3c3ccc(Cl)cc3)cc2c2c1COC2` (single isomer, unassigned) [Example 581] are 0.183 µM and 6.57 µM.
Take `C[C@H]1COC[C@@H](c2ccc(C(F)(F)F)cn2)N1C(=O)c1ccc2nc(N)c3c(c2c1)COC3` (single isomer, unassigned) [Example 582]: the IC50 in the assay on HCT116 MTAP null cells (HCT116-MTAP null, 144 h) is more than 1 µM; with HCT116 WT cells (Homo sapiens, HCT-116, 144 h), more than 10 µM.
On the same counts, the results for `CC1COC[C@H](c2ccc(C(F)(F)F)cn2)N1C(=O)c1ccc2nc(N)c3c(c2c1)COC3` (single isomer, unassigned) [Example 583] are 0.017 µM and 0.616 µM.
On the same counts, the results for `Cn1ncc2c3cc(C(=O)N4CCOC[C@@H]4c4ccc(C(F)(F)F)cc4)ccc3nc(N)c21` (single isomer, unassigned) [Example 584] are 0.236 µM and 11.7 µM.
On the same counts, the results for `C[C@@H]1CN(C(=O)c2ccc3nc(N)c4c(c3c2)COC4)[C@@H](c2ccc(OC(F)(F)F)cc2)CO1` (single isomer, unassigned) [Example 585] are more than 1 µM and more than 10 µM.
As for `C[C@H]1CN(C(=O)c2ccc3nc(N)c4c(c3c2)COC4)[C@H](c2ccc(OC(F)(F)F)cc2)CO1` (single isomer, unassigned) [Example 586], the IC50 was found to be 0.082 µM with HCT116 MTAP null cells (HCT116-MTAP null, 144 h) and 2.92 µM in the assay on HCT116 WT cells (Homo sapiens, HCT-116, 144 h).
Consider `C[C@H]1COC[C@@H](c2ccc(OC(F)(F)F)cc2)N1C(=O)c1ccc2nc(N)c3c(c2c1)COC3` (single isomer, unassigned) [Example 587], for which the IC50 in the assay with HCT116 MTAP null cells (HCT116-MTAP null, 144 h) was more than 1 µM; with HCT116 WT cells (Homo sapiens, HCT-116, 144 h) it was more than 10 µM.
In the case of `C[C@@H]1COC[C@H](c2ccc(OC(F)(F)F)cc2)N1C(=O)c1ccc2nc(N)c3c(c2c1)COC3` (single isomer, unassigned) [Example 588], the IC50 with HCT116 MTAP null cells (HCT116-MTAP null, 144 h) turned out to be 0.014 µM; in the assay on HCT116 WT cells (Homo sapiens, HCT-116, 144 h), 0.466 µM.
As for `CC(C)(C)OC(=O)N1CCN(C(=O)c2cc3c4c(c(N)nc3cn2)COC4)[C@@H](c2ccc(C(F)(F)F)cc2)C1` (single isomer, unassigned) [Example 589], the IC50 in the assay with HCT116 MTAP null cells is 5.1 µM; in the assay with HCT116 WT cells it was more than 10 µM.
For `CC(C)(C)OC(=O)N1CCN(C(=O)c2cc3c4c(c(N)nc3cn2)COC4)[C@H](c2ccc(C(F)(F)F)cc2)C1` (single isomer, unassigned) [Example 590] the same measures were 0.056 µM and 1.8 µM.
For `Nc1nc2ccc(C(=O)N3CCOC[C@H]3c3ccc(OC(F)(F)F)nc3)cc2c2c1COC2` (single isomer, unassigned) [Example 591], the IC50 in the assay on HCT116 MTAP null cells (HCT116-MTAP null, 144 h) is 6.16 µM; with HCT116 WT cells (Homo sapiens, HCT-116, 144 h), more than 10 µM.
Regarding `Nc1nc2ccc(C(=O)N3CCOC[C@@H]3c3ccc(OC(F)(F)F)nc3)cc2c2c1COC2` (single isomer, unassigned) [Example 592], the IC50 stood at 0.145 µM in the assay with HCT116 MTAP null cells (HCT116-MTAP null, 144 h) and 8.9 µM in the assay with HCT116 WT cells (Homo sapiens, HCT-116, 144 h).
On to `Nc1nc2ccc(C(=O)N3CCOC[C@@H]3c3ccc(C(F)(F)F)nn3)cc2c2c1COC2` (single isomer, unassigned) [Example 593], for which the IC50 in the assay with HCT116 MTAP null cells (HCT116-MTAP null, 144 h) was 0.936 µM; in the assay on HCT116 WT cells (Homo sapiens, HCT-116, 144 h), more than 10 µM.
For `Nc1nc2cnc(C(=O)N3CCSC[C@@H]3c3ccc(C(F)(F)F)cc3)cc2c2c1COC2` (single isomer, unassigned) [Example 595, (4-amino-1,3-dihydrofuro[3,4-c][1,7]naphthyridin-8-yl)((3S)-3-(4-(trifluoromethyl)phenyl)-4-thiomorpholinyl)methanone or (4-amino-1,3-dihydrofuro[3,4-c][1,7]naphthyridin-8-yl)((3R)-3-(4-(trifluoromethyl)phenyl)-4-thiomorpholinyl)methanone] the same measures were 0.138 µM and 8.01 µM.
